Measured values published in the NIST ThermoML archive (doi:10.1016/j.fluid.2005.03.026).

What was measured:
[1] = molar heat capacity at constant pressure; xn = mol fraction of the nth substance listed; details: 101.3 kPa, Liquid, Small sample (50 mg) DSC
[2] = molar heat capacity at constant pressure; details: 101.3 kPa, Liquid, Small sample (50 mg) DSC

Cc1ccc(C)cc1 [1,4-dimethylbenzene] + CCCCCCCCCC
molar heat capacity at constant pressure [J/K/mol], [1]
Details | 288.15 K | 298.15 K | 308.15 K
x1 = 0.05066 | 303.41 | 308.28 | 313.15
x1 = 0.1092 | 295.7 | 300.41 | 305.32
x1 = 0.1983 | 283.92 | 288.58 | 293.34
x1 = 0.3105 | 269 | 273.63 | 278.21
x1 = 0.3427 | 264.73 | 269.34 | 273.97
x1 = 0.4538 | 250.03 | 254.47 | 258.95
x1 = 0.4919 | 244.95 | 249.41 | 253.84
x1 = 0.5995 | 230.71 | 235.12 | 239.35
x1 = 0.6975 | 217.77 | 222.04 | 226.15
x1 = 0.7866 | 206.1 | 210.33 | 214.31
x1 = 0.8403 | 199.13 | 203.21 | 207.08
x1 = 0.8993 | 191.5 | 195.54 | 199.3
x1 = 0.9499 | 185.04 | 188.96 | 192.6

CCCCCCCCCC [decane] + COC(=O)OC
molar heat capacity at constant pressure [J/K/mol], [1]
Details | 288.15 K | 298.15 K | 308.15 K
x2 = 0 | 310.09 | 315.04 | 320.03
x2 = 0.0486 | 302.45 | 307.21 | 311.97
x2 = 0.1015 | 294.55 | 298.95 | 303.55
x2 = 0.1491 | 287.67 | 291.87 | 296.24
x2 = 0.198 | 280.61 | 284.73 | 288.82
x2 = 0.3041 | 266.76 | 269.88 | 273.33
x2 = 0.4015 | 255.05 | 256.83 | 259.45
x2 = 0.4497 | 250.05 | 250.5 | 252.64
x2 = 0.5505 | 242.42 | 236.43 | 238.36
x2 = 0.6011 | 237.62 | 229.81 | 230.9
x2 = 0.6454 | 231.62 | 223.97 | –
x2 = 0.6945 | 223.46 | 216.47 | 216.49
x2 = 0.7943 | 202.82 | 198.92 | 199.64
x2 = 0.8464 | – | 189.34 | 190.56
x2 = 0.8975 | 179.17 | 180.34 | 181.8
x2 = 0.949 | 170.97 | 172.02 | 173.51

Cc1ccc(C)cc1 [1,4-dimethylbenzene]
[2]
Details | molar heat capacity at constant pressure [J/K/mol]
288.15 K | 178.86
298.15 K | 182.56
308.15 K | 186.15

COC(=O)OC [dimethyl carbonate]
[2]
Details | molar heat capacity at constant pressure [J/K/mol]
288.15 K | 163.61
298.15 K | 164.65
308.15 K | 165.92

COC(=O)OC [dimethyl carbonate] + Cc1ccc(C)cc1
[1], x1 = 1
Details | molar heat capacity at constant pressure [J/K/mol]
288.15 K | 163.61
298.15 K | 164.65
308.15 K | 165.92

CCCCCCCCCC [decane]
[2]
Details | molar heat capacity at constant pressure [J/K/mol]
288.15 K | 310.09
298.15 K | 315.04
308.15 K | 320.03

Cc1ccc(C)cc1 [1,4-dimethylbenzene] + COC(=O)OC
molar heat capacity at constant pressure [J/K/mol], [1]
Details | 288.15 K | 298.15 K | 308.15 K
x2 = 0 | 178.86 | 182.56 | 186.15
x2 = 0.04522 | 178.07 | 181.79 | 185.28
x2 = 0.09687 | 177.32 | 180.82 | 184.22
x2 = 0.2003 | 175.72 | 178.96 | 182.14
x2 = 0.3136 | 173.97 | 176.99 | 179.84
x2 = 0.4125 | 172.39 | 175.09 | 177.74
x2 = 0.4946 | 171.06 | 173.56 | 176.04
x2 = 0.5368 | 170.43 | 172.79 | 175.13
x2 = 0.6528 | 168.55 | 170.61 | 172.04
x2 = 0.8445 | 165.6 | 167.14 | 168.84
x2 = 0.9 | 164.89 | 166.25 | 167.79
